Source: publication PMC10986521 (Microbiology Spectrum, 2024)

Tested on: not listed separately
Assay: in vitro
Conditions: human

| Structure (SMILES) | CC50 |
| --- | --- |
| CCOC(=O)/C=C/[C@H](C[C@@H]1CCNC1=O)NC(=O)[C@@H](CC(=O)[C@@H](NC(=O)c1cc(C)on1)C(C)C)Cc1ccc(F)cc1 [AG7088, Rupintrivir, reference compound] | > 50 µM |
| CC(C)C[C@H](NC(=O)OCC(C)(C)Sc1ccccc1)C(=O)N[C@H](C=O)C[C@@H]1CCNC1=O [Compound D1c] | > 50 µM |
| CC(C)C[C@H](NC(=O)OCC(C)(C)Sc1ccccc1)C(=O)N[C@@H](C[C@@H]1CCNC1=O)C(O)S(=O)(=O)O (stereo partly drawn) [Compound D1d] | > 50 µM |
| [2H]C([2H])(OC(=O)N[C@@H](CC(C)C)C(=O)N[C@@H](C[C@@H]1CCNC1=O)C(O)S(=O)(=O)[O-])C(C)(C)Oc1cccc(Cl)c1.[Na+] (stereo partly drawn) [Compound D14d] | > 50 µM |
| CC(C)C[C@H](NC(=O)OCC(C)(C)Oc1ccc(F)cc1)C(=O)N[C@H](C=O)C[C@@H]1CCNC1=O [Compound D15c] | > 50 µM |
| CC(C)C[C@H](NC(=O)OCC(C)(C)Oc1ccc(F)cc1)C(=O)N[C@@H](C[C@@H]1CCNC1=O)C(O)S(=O)(=O)O (stereo partly drawn) [Compound D15d] | > 50 µM |
| CC(C)C[C@H](NC(=O)OCC(C)(C)Oc1cccc(F)c1)C(=O)N[C@H](C=O)C[C@@H]1CCNC1=O [Compound D16c] | > 50 µM |
| CC(C)C[C@H](NC(=O)OCC(C)(C)Oc1cccc(F)c1)C(=O)N[C@@H](C[C@@H]1CCNC1=O)C(O)S(=O)(=O)O (stereo partly drawn) [Compound D16d] | > 50 µM |
| CC(C)C[C@H](NC(=O)[C@H](Cc1cccc2ccccc12)NC(=O)OCc1ccccc1)C(=O)N[C@H](C=O)C[C@@H]1CCNC1=O [Compound E1] | > 50 µM |
| CC(C)C[C@H](NC(=O)[C@H](Cc1cccc2ccccc12)NC(=O)OCc1ccccc1)C(=O)N[C@@H](C[C@@H]1CCNC1=O)C(=O)C(=O)NC(C)C [Compound E6] | > 50 µM |
| CC(C)C[C@H](NC(=O)OCc1ccccc1)C(=O)N[C@@H](C[C@@H]1CCNC1=O)C(=O)C(=O)NC1CC1 [Compound E6b] | > 50 µM |
| CCCCNC(=O)C(=O)[C@H](C[C@@H]1CCNC1=O)NC(=O)[C@H](CC(C)C)NC(=O)OCc1ccccc1 [Compound E6c] | > 50 µM |
| CCOC(=O)CNC(=O)C(=O)[C@H](C[C@@H]1CCNC1=O)NC(=O)[C@H](CC(C)C)NC(=O)OCc1ccccc1 [Compound E6d] | > 50 µM |
| CC(C)C[C@H](NC(=O)OCc1ccccc1)C(=O)N[C@@H](C[C@@H]1CCNC1=O)C(=O)C(=O)NC(C)(C)C [Compound E6g] | > 50 µM |
| CC(C)C[C@H](NC(=O)OCc1ccccc1)C(=O)N[C@@H](C[C@@H]1CCNC1=O)C(=O)c1ncco1 [Compound E8a] | > 50 µM |
| CC(C)C[C@H](NC(=O)OCc1ccccc1)C(=O)N[C@H](C=O)C[C@@H]1CCNC1=O [GC373] | > 50 µM |

Target: T1, FMDV 3Cpro (Foot-and-mouth disease virus A, UniProt A0A097I315)
Assay: cell-based
Set-up: species or system FMDV A/IND287/96 strain
Conditions: Cell-based assay (EC50)

| Structure (SMILES) | EC50 |
| --- | --- |
| CCOC(=O)/C=C/[C@H](C[C@@H]1CCNC1=O)NC(=O)[C@@H](CC(=O)[C@@H](NC(=O)c1cc(C)on1)C(C)C)Cc1ccc(F)cc1 [AG7088, Rupintrivir, reference compound] | 10.3 ± 0.2 µM |
| CC(C)C[C@H](NC(=O)OCC(C)(C)Sc1ccccc1)C(=O)N[C@H](C=O)C[C@@H]1CCNC1=O [Compound D1c] | 1.85 ± 0.35 µM |
| CC(C)C[C@H](NC(=O)OCC(C)(C)Sc1ccccc1)C(=O)N[C@@H](C[C@@H]1CCNC1=O)C(O)S(=O)(=O)O (stereo partly drawn) [Compound D1d] | 1.5 ± 0.43 µM |
| [2H]C([2H])(OC(=O)N[C@@H](CC(C)C)C(=O)N[C@@H](C[C@@H]1CCNC1=O)C(O)S(=O)(=O)[O-])C(C)(C)Oc1cccc(Cl)c1.[Na+] (stereo partly drawn) [Compound D14d] | 4.81 ± 3.06 µM |
| CC(C)C[C@H](NC(=O)OCC(C)(C)Oc1ccc(F)cc1)C(=O)N[C@H](C=O)C[C@@H]1CCNC1=O [Compound D15c] | 5.25 ± 0.64 µM |
| CC(C)C[C@H](NC(=O)OCC(C)(C)Oc1ccc(F)cc1)C(=O)N[C@@H](C[C@@H]1CCNC1=O)C(O)S(=O)(=O)O (stereo partly drawn) [Compound D15d] | 5.9 ± 0.58 µM |
| CC(C)C[C@H](NC(=O)OCC(C)(C)Oc1cccc(F)c1)C(=O)N[C@H](C=O)C[C@@H]1CCNC1=O [Compound D16c] | 4.9 ± 0.37 µM |
| CC(C)C[C@H](NC(=O)OCC(C)(C)Oc1cccc(F)c1)C(=O)N[C@@H](C[C@@H]1CCNC1=O)C(O)S(=O)(=O)O (stereo partly drawn) [Compound D16d] | 5.05 ± 0.21 µM |
| CC(C)C[C@H](NC(=O)[C@H](Cc1cccc2ccccc12)NC(=O)OCc1ccccc1)C(=O)N[C@H](C=O)C[C@@H]1CCNC1=O [Compound E1] | 0.11 ± 0.05 µM |
| CC(C)C[C@H](NC(=O)[C@H](Cc1cccc2ccccc12)NC(=O)OCc1ccccc1)C(=O)N[C@@H](C[C@@H]1CCNC1=O)C(=O)C(=O)NC(C)C [Compound E6] | 0.15 ± 0.07 µM |
| CC(C)C[C@H](NC(=O)OCc1ccccc1)C(=O)N[C@@H](C[C@@H]1CCNC1=O)C(=O)C(=O)NC1CC1 [Compound E6b] | 8.8 ± 0.3 µM |
| CCCCNC(=O)C(=O)[C@H](C[C@@H]1CCNC1=O)NC(=O)[C@H](CC(C)C)NC(=O)OCc1ccccc1 [Compound E6c] | 7 ± 0.5 µM |
| CCOC(=O)CNC(=O)C(=O)[C@H](C[C@@H]1CCNC1=O)NC(=O)[C@H](CC(C)C)NC(=O)OCc1ccccc1 [Compound E6d] | 9.2 ± 0.1 µM |
| CC(C)C[C@H](NC(=O)OCc1ccccc1)C(=O)N[C@@H](C[C@@H]1CCNC1=O)C(=O)C(=O)NC(C)(C)C [Compound E6g] | 5.8 ± 0.3 µM |
| CC(C)C[C@H](NC(=O)OCc1ccccc1)C(=O)N[C@@H](C[C@@H]1CCNC1=O)C(=O)c1ncco1 [Compound E8a] | 8.2 ± 0.09 µM |
| CC(C)C[C@H](NC(=O)OCc1ccccc1)C(=O)N[C@H](C=O)C[C@@H]1CCNC1=O [GC373] | 6.6 ± 0.2 µM |

Tested on: FMDV
Assay: not given
Conditions: pig, in vivo; cited from earlier work

| Structure (SMILES) | viremia in FMDV-challenged pigs |
| --- | --- |
| NC(=O)c1ncc[nH]c1=O [Compound T-1105] | reduced or prevented viremia |

Tested on: SARS-CoV-2
Assay: not given
Conditions: read-out: EC50 against SARS-CoV-2; cited from earlier work

| Structure (SMILES) | EC50 |
| --- | --- |
| CC(C)C[C@H](NC(=O)OCC(C)(C)Sc1ccccc1)C(=O)N[C@H](C=O)C[C@@H]1CCNC1=O [Compound D1c] | 0.012 µM |
| CC(C)C[C@H](NC(=O)OCC(C)(C)Sc1ccccc1)C(=O)N[C@@H](C[C@@H]1CCNC1=O)C(O)S(=O)(=O)O (stereo partly drawn) [Compound D1d] | 0.01 µM |

Tested on: FMDV
Assay: not given
Conditions: read-out: in vitro potency against FMDV (EC50); cited from earlier work

| Structure (SMILES) | EC50 |
| --- | --- |
| CCOC(=O)/C=C/[C@H](C[C@@H]1CCNC1=O)NC(=O)[C@@H](CC(=O)[C@@H](NC(=O)c1cc(C)on1)C(C)C)Cc1ccc(F)cc1 [AG7088, Rupintrivir, reference compound] | 10 to 20 µM |

Tested on: FMDV
Assay: not given
Conditions: cited from earlier work

| Structure (SMILES) | replication of FMDV in cell culture via inhibiting 3Cpro |
| --- | --- |
| N#Cc1cc(-c2ccccc2)[nH]c1-c1nccc2ccccc12 [NSC116640] | inhibited the replication of FMDV in cell culture |
| Oc1ccccc1-c1nc2c3ccccc3c3ccccc3c2[nH]1 [NSC332670] | inhibited the replication of FMDV in cell culture |
| COc1ccc(-c2cc(=O)c3c(O)cc(O)c(-c4cc(-c5cc(=O)c6c(O)cc(O)cc6o5)ccc4OC)c3o2)cc1 [isoginkgetin] | inhibited the replication of FMDV in cell culture |
| O=c1cc(-c2ccc(O)c(O)c2)oc2cc(O)cc(O)c12 [luteolin] | inhibited the replication of FMDV in cell culture |
| O=c1c(O)c(-c2ccc(O)c(O)c2)oc2cc(O)cc(O)c12 [quercetin] | inhibited the replication of FMDV in cell culture |

Tested on: FMDV
Assay: not given
Conditions: mouse, in vivo; cited from earlier work

| Structure (SMILES) | survival rate in FMDV-vaccinated and un-vaccinated mice |
| --- | --- |
| CCCCOc1nc(N)c2c(n1)N(Cc1cccc(CN3CCCC3)c1)CC(=O)N2 [GS-9620] | enhanced survival rate |

Tested on: FMDV
Assay: not given
Conditions: cited from earlier work
Remark: another data set of the same source

| Structure (SMILES) | in vitro activity against FMDV (EC50) |
| --- | --- |
| Cc1cc(CCCOc2c(C)cc(-c3noc(C(F)(F)F)n3)cc2C)on1 [pleconaril] | low micromolar to millimolar range |
| NC(=O)c1ncn([C@@H]2O[C@H](CO)[C@@H](O)[C@H]2O)n1 [ribavirin] | low micromolar to millimolar range |

Target: T1, FMDV 3Cpro
Assay: biochemical
Set-up: species or system FMDV A/IND287/96 strain (serotype A)
Conditions: FRET assay (IC50)

| Structure (SMILES) | IC50 |
| --- | --- |
| CCOC(=O)/C=C/[C@H](C[C@@H]1CCNC1=O)NC(=O)[C@@H](CC(=O)[C@@H](NC(=O)c1cc(C)on1)C(C)C)Cc1ccc(F)cc1 [AG7088, Rupintrivir, reference compound] | 4.3 ± 0.2 µM |
| CC(C)C[C@H](NC(=O)OCC(C)(C)Sc1ccccc1)C(=O)N[C@H](C=O)C[C@@H]1CCNC1=O [Compound D1c] | 1.2 ± 0.71 µM |
| CC(C)C[C@H](NC(=O)OCC(C)(C)Sc1ccccc1)C(=O)N[C@@H](C[C@@H]1CCNC1=O)C(O)S(=O)(=O)O (stereo partly drawn) [Compound D1d] | 1.01 ± 0.42 µM |
| [2H]C([2H])(OC(=O)N[C@@H](CC(C)C)C(=O)N[C@@H](C[C@@H]1CCNC1=O)C(O)S(=O)(=O)[O-])C(C)(C)Oc1cccc(Cl)c1.[Na+] (stereo partly drawn) [Compound D14d] | 0.65 ± 0.07 µM |
| CC(C)C[C@H](NC(=O)OCC(C)(C)Oc1ccc(F)cc1)C(=O)N[C@H](C=O)C[C@@H]1CCNC1=O [Compound D15c] | 0.45 ± 0.07 µM |
| CC(C)C[C@H](NC(=O)OCC(C)(C)Oc1ccc(F)cc1)C(=O)N[C@@H](C[C@@H]1CCNC1=O)C(O)S(=O)(=O)O (stereo partly drawn) [Compound D15d] | 0.55 ± 0.07 µM |
| CC(C)C[C@H](NC(=O)OCC(C)(C)Oc1cccc(F)c1)C(=O)N[C@H](C=O)C[C@@H]1CCNC1=O [Compound D16c] | 0.78 ± 0.03 µM |
| CC(C)C[C@H](NC(=O)OCC(C)(C)Oc1cccc(F)c1)C(=O)N[C@@H](C[C@@H]1CCNC1=O)C(O)S(=O)(=O)O (stereo partly drawn) [Compound D16d] | 0.69 ± 0.02 µM |
| CC(C)C[C@H](NC(=O)[C@H](Cc1cccc2ccccc12)NC(=O)OCc1ccccc1)C(=O)N[C@H](C=O)C[C@@H]1CCNC1=O [Compound E1] | 0.05 ± 0.08 µM |
| CC(C)C[C@H](NC(=O)[C@H](Cc1cccc2ccccc12)NC(=O)OCc1ccccc1)C(=O)N[C@@H](C[C@@H]1CCNC1=O)C(=O)C(=O)NC(C)C [Compound E6] | 0.06 ± 0.06 µM |
| CC(C)C[C@H](NC(=O)OCc1ccccc1)C(=O)N[C@@H](C[C@@H]1CCNC1=O)C(=O)C(=O)NC1CC1 [Compound E6b] | 2.4 ± 0.09 µM |
| CCCCNC(=O)C(=O)[C@H](C[C@@H]1CCNC1=O)NC(=O)[C@H](CC(C)C)NC(=O)OCc1ccccc1 [Compound E6c] | 2.1 ± 0.07 µM |
| CCOC(=O)CNC(=O)C(=O)[C@H](C[C@@H]1CCNC1=O)NC(=O)[C@H](CC(C)C)NC(=O)OCc1ccccc1 [Compound E6d] | 2.2 ± 0.05 µM |
| CC(C)C[C@H](NC(=O)OCc1ccccc1)C(=O)N[C@@H](C[C@@H]1CCNC1=O)C(=O)C(=O)NC(C)(C)C [Compound E6g] | 1.5 ± 0.1 µM |
| CC(C)C[C@H](NC(=O)OCc1ccccc1)C(=O)N[C@@H](C[C@@H]1CCNC1=O)C(=O)c1ncco1 [Compound E8a] | 3.4 ± 0.08 µM |
| CC(C)C[C@H](NC(=O)OCc1ccccc1)C(=O)N[C@H](C=O)C[C@@H]1CCNC1=O [GC373] | 2.3 ± 0.07 µM |
